Assay results from the NIST ThermoML archive (doi:10.1021/je100598x).

Assay: cn = amount concentration of the nth substance listed, in mol/dm3
Details: 101 kPa, Liquid, Direct current cell with electrodes

CCCCCCCCCCCC[N+](CCCC)(CCCC)CCCC.[Br-] [dodecyltributylammonium bromide] + O
electrical conductivity [S/m]
Details	288.15 K	293.15 K	298.15 K	303.15 K	308.15 K	313.15 K	318.15 K
c1 = 0.000658	0.005218	0.00579	0.00649	0.007326	0.00785	0.008542	0.00923
c1 = 0.001299	0.009805	0.01101	0.01226	0.0138	0.01502	0.01631	0.0177
c1 = 0.001923	0.01419	0.01604	0.0179	0.0201	0.0218	0.0238	0.0258
c1 = 0.002532	0.01845	0.0208	0.0233	0.0262	0.0283	0.0309	0.0336
c1 = 0.003125	0.0226	0.0254	0.0287	0.0319	0.0346	0.0378	0.0412
c1 = 0.003704	0.0265	0.03	0.0335	0.0374	0.0407	0.0445	0.0484
c1 = 0.004268	0.0303	0.0341	0.0383	0.0427	0.0465	0.0509	0.0551
c1 = 0.004819	0.034	0.0384	0.0429	0.0476	0.0517	0.0566	0.0619
c1 = 0.005357	0.0377	0.0423	0.0472	0.052	0.0567	0.0619	0.0672
c1 = 0.005882	0.041	0.0459	0.0508	0.0554	0.0599	0.0658	0.0712
c1 = 0.006395	0.0441	0.0487	0.0532	0.0578	0.0629	0.069	0.0752
c1 = 0.006896	0.0466	0.0509	0.0556	0.0601	0.0658	0.072	0.0785
c1 = 0.007386	0.0485	0.0524	0.0575	0.0626	0.0678	0.0747	0.0817
c1 = 0.007865	0.05	0.0542	0.059	0.0647	0.0706	0.0773	0.0845
c1 = 0.008333	0.0513	0.0554	0.061	0.0666	0.0728	0.0798	0.0874
c1 = 0.008791	0.0523	0.0568	0.0622	0.0685	0.0749	0.0822	0.09
c1 = 0.009239	0.0537	0.0582	0.0641	0.0703	0.077	0.0845	0.0926
c1 = 0.009677	0.0548	0.0598	0.0652	0.0721	0.0789	0.0867	0.0952
c1 = 0.01011	0.0556	0.061	0.0671	0.0737	0.0804	0.0889	0.0976
c1 = 0.01053	0.0572	0.0623	0.0686	0.0757	0.0829	0.0913	0.1003
c1 = 0.01094	0.0583	0.0636	0.0701	0.0774	0.0849	0.0935	0.1028
c1 = 0.01134	0.0594	0.0649	0.0716	0.0791	0.0868	0.0957	0.105
c1 = 0.01174	0.0605	0.0661	0.073	0.0807	0.0887	0.0978	0.108
c1 = 0.01212	0.0615	0.0673	0.0744	0.0824	0.0905	0.0998	0.11
c1 = 0.0125	0.0626	0.0685	0.0758	0.084	0.0923	0.1019	0.1122
